For 29 compounds, IC50 results are on record in US9850203B2, “Autotaxin inhibitor compounds” (PharmAkea, Inc., priority 2013, dated 2017).

In general, IC50 refers to the concentration at which inhibition is half-maximal. Lower therefore signals greater potency in that assay.

The structures appear in SMILES notation.

The target in this experiment is human autotaxin (ATX) (Homo sapiens (Human), UniProt Q13822). In words: Human Autotaxin Assay. The format is biochemical. The note with it: concentrated conditioned media from Hep3B cells; LPC substrate, choline release. The protocol: ATX activity is assayed in concentrated conditioned media from Hep3B human hepatocellular carcinoma cells by measuring the amount of choline released from the substrate, lysophosphatidylcholine (LPC) as it is cleaved to LPA. Conditioned media is collected from confluent Hep3B cells and concentrated 20-fold using Centriprep-30 filter devices (Millipore). To assay for autotaxin inhibition, 10-20 μL of the concentrated conditioned media is incubated with 2.5 μL of a test compound in DMSO and 72.5-82.5 μL lyso-PLD buffer (100 mM Tris pH 9, 500 mM NaCl, 5 mM MgCl2, 5 mM CaCl2, 0.05% Triton X-100 in the presence or absence of 0.2% fatty-acid-free human serum albumin) for 15 min at 37° C. After the 15 min incubation, 5 uL of 2 mM LPC (14:0; Avanti Polar Lipids Cat#855575C) diluted in lyso-PLD buffer is added for a final concentration of 100 uM and the incubation continues for 1.5-3 hours at 37° C.
`Cc1c(Sc2cccc(C(=O)O)c2)c2ccc(Cl)c(F)c2n1CC(=O)N1CCC(OCc2ccc(F)c(F)c2)CC1` [Compound 1-13, 3-((6-Chloro-1-(2-(4-((3,4-difluorobenzyl)oxy)piperidin-1-yl)-2-oxoethyl)-7-fluoro-2-methyl-1H-indol-3-yl)thio)benzoic acid] returned an IC50 not above 500 nM.
Next, `Cc1c(Sc2cccc(C(=O)O)c2F)c2ccc(Cl)c(F)c2n1CC(=O)N1CC2(CCCC2)c2ccccc21` [Compound 3-221, 3-((6-Chloro-7-fluoro-2-methyl-1-(2-oxo-2-(spiro[cyclopentane-1,3′-indolin]-1′-yl)ethyl)-1H-indol-3-yl)thio)-2-fluorobenzoic acid]: not above 500 nM.
Take `Cc1c(Sc2cccc(C(=O)O)c2)c2ccc(Cl)c(F)c2n1CC(=O)N1CCc2cc(Cl)ccc21` [Compound 1-71, 3-((6-Chloro-1-(2-(5-chloroindolin-1-yl)-2-oxoethyl)-7-fluoro-2-methyl-1H-indol-3-yl)thio)benzoic acid]: the IC50 is not above 500 nM.
Take `Cc1c(Sc2cccc(C(=O)O)c2)c2ccc(Cl)c(F)c2n1CC(=O)N1CC2CCCCC2C1` (centres unmarked) [Compound 1-98, 3-((6-Chloro-7-fluoro-1-(2-(hexahydro-1H-isoindol-2(3H)-yl)-2-oxoethyl)-2-methyl-1H-indol-3-yl)thio)benzoic acid]: the IC50 is not above 500 nM.
Next, `Cc1c(Sc2cccc(C(=O)O)c2)c2ccc(Cl)c(F)c2n1CC(=O)N(C)C` [Compound 1-7, 3-((6-Chloro-1-(2-(dimethylamino)-2-oxoethyl)-7-fluoro-2-methyl-1H-indol-3-yl)thio)benzoic acid]: not above 500 nM; `Cc1c(Sc2cccc(C(=O)O)c2)c2ccc(Cl)c(F)c2n1CC(=O)N1CCC2(CCOCC2)C1` [Compound 1-46, 3-((6-Chloro-7-fluoro-2-methyl-1-(2-oxo-2-(8-oxa-2-azaspiro[4.5]decan-2-yl)ethyl)-1H-indol-3-yl)thio)benzoic acid]: not above 500 nM; `Cc1c(Sc2cccc(C(=O)O)c2)c2ccc(Cl)c(F)c2n1CC(=O)N1CC(n2cccn2)C1` [Compound 1-86, 3-((1-(2-(3-(1H-Pyrazol-1-yl)azetidin-1-yl)-2-oxoethyl)-6-chloro-7-fluoro-2-methyl-1H-indol-3-yl)thio)benzoic acid]: not above 500 nM.
Next, `Cc1c(Sc2cccc(C(=O)O)c2)c2ccc(Cl)c(F)c2n1CC(=O)N1CCC(CCc2ccccc2)CC1` [Compound 1-62, 3-((6-Chloro-7-fluoro-2-methyl-1-(2-oxo-2-(4-phenethylpiperidin-1-yl)ethyl)-1H-indol-3-yl)thio)benzoic acid]: 500 to 3000 nM.
With `Cc1c(Sc2cccc(C(=O)O)c2F)c2ccc(Cl)c(F)c2n1CC(=O)N1CC2(CC2)c2cc(F)ccc21` [Compound 3-23, 3-[6-Chloro-7-fluoro-1-[2-(5′-fluorospiro[cyclopropane-1,3′-indoline]-1′-yl)-2-oxo-ethyl]-2-methyl-indol-3-yl]sulfanyl-2-fluoro-benzoic acid] the figure was not above 500 nM; with `Cc1c(Sc2cccc(C(=O)O)c2F)c2ccc(Cl)c(F)c2n1CC(=O)N1CCC2(C1)OCCO2` [Compound 2-72, 3-((6-Chloro-7-fluoro-2-methyl-1-(2-oxo-2-(1,4-dioxa-7-azaspiro[4.4]nonan-7-yl)ethyl)-1H-indol-3-yl)thio)-2-fluorobenzoic acid], not above 500 nM; with `Cc1c(Sc2cccc(C(=O)O)c2)c2ccc(Cl)c(F)c2n1CC(=O)N1Cc2ccccc2C1` [Compound 1-91, 3-((6-Chloro-7-fluoro-1-(2-(isoindolin-2-yl)-2-oxoethyl)-2-methyl-1H-indol-3-yl)thio)benzoic acid], not above 500 nM.
`Cc1c(Sc2cccc(C(=O)O)c2)c2ccc(Cl)c(F)c2n1CC(=O)N1CCc2c(F)cc(F)cc21` [Compound 1-70, 3-((6-Chloro-1-(2-(4,6-difluoroindolin-1-yl)-2-oxoethyl)-7-fluoro-2-methyl-1H-indol-3-yl)thio)benzoic acid] had an IC50 not above 500 nM.
`Cc1c(Sc2cccc(C(=O)O)c2F)c2ccc(Cl)c(F)c2n1CCN1CC2(CCC2)c2ccccc21` [Compound 2-75, 3-((6-Chloro-7-fluoro-2-methyl-1-(2-(spiro[cyclobutane-1,3′-indolin]-1′-yl)ethyl)-1H-indol-3-yl)thio)-2-fluorobenzoic acid] showed an IC50 not above 500 nM.
With `Cc1c(Sc2cccc(C(=O)O)c2)c2ccc(Cl)c(F)c2n1CC(=O)Nc1cnn(C)c1` [Compound 1-6, 3-((6-Chloro-7-fluoro-2-methyl-1-(2-((1-methyl-1H-pyrazol-4-yl)amino)-2-oxoethyl)-1H-indol-3-yl)thio)benzoic acid] the figure was not above 500 nM; with `Cc1c(Sc2cccc(C(=O)O)c2)c2ccc(Cl)c(F)c2n1CC(=O)N1CC2(CCC2)c2c(F)cccc21` [Compound 1-33, 3-((6-Chloro-7-fluoro-1-(2-(4′-fluorospiro[cyclobutane-1,3′-indolin]-1′-yl)-2-oxoethyl)-2-methyl-1H-indol-3-yl)thio)benzoic acid], not above 500 nM.
The compound `Cc1c(Sc2cccc(C(=O)O)c2)c2ccc(Cl)c(F)c2n1CC(=O)N1CCc2ccccc21` [Compound 1-14, 3-((6-Chloro-7-fluoro-1-(2-(indolin-1-yl)-2-oxoethyl)-2-methyl-1H-indol-3-yl)thio)benzoic acid] registered an IC50 not above 500 nM.
With `Cc1c(Sc2cccc(C(=O)O)c2)c2ccc(Cl)c(F)c2n1CC(=O)N1CCCC(O)(C(F)(F)F)C1` (centres unmarked) [Compound 1-83, 3-((6-Chloro-7-fluoro-1-(2-(3-hydroxy-3-(trifluoromethyl)piperidin-1-yl)-2-oxoethyl)-2-methyl-1H-indol-3-yl)thio)benzoic acid] the figure was not above 500 nM.
For `Cc1c(Sc2cccc(C(=O)O)c2)c2ccc(Cl)c(F)c2n1CC(=O)N1CCC2(CC1)CNC(=O)O2` [Compound 1-12], the IC50 is not above 500 nM.
With `Cc1c(Sc2cccc(C(=O)O)c2)c2ccc(Cl)c(F)c2n1CC(=O)NC1CCCCC1` [Compound 1-2, 3-((6-Chloro-1-(2-(cyclohexylamino)-2-oxoethyl)-7-fluoro-2-methyl-1H-indol-3-yl)thio)benzoic acid] the figure was 500 to 3000 nM.
The compound `Cc1c(Sc2cccc(C(=O)O)c2)c2ccc(Cl)c(F)c2n1CC(=O)N(C)c1ccccc1` [Compound 1-8, 3-((6-Chloro-7-fluoro-2-methyl-1-(2-(methyl(phenyl)amino)-2-oxoethyl)-1H-indol-3-yl)thio)benzoic acid] registered a concentration for half-maximal inhibition (IC50) of 500 to 3000 nM.
`Cc1c(Sc2cccc(C(=O)O)c2)c2ccc(Cl)c(F)c2n1CC(=O)N1CCc2cccnc21` [Compound 1-72, 3-((6-Chloro-1-(2-(2,3-dihydro-1H-pyrrolo[2,3-b]pyridin-1-yl)-2-oxoethyl)-7-fluoro-2-methyl-1H-indol-3-yl)thio)benzoic acid] gave an IC50 of 500 to 3000 nM.
Next, `Cc1c(Sc2cccc(C(=O)O)c2)c2ccc(Cl)c(F)c2n1CC(=O)N1CCC(CCc2ccccc2)C1` (centres unmarked) [Compound 1-76, 3-((6-Chloro-7-fluoro-2-methyl-1-(2-oxo-2-(3-phenethylpyrrolidin-1-yl)ethyl)-1H-indol-3-yl)thio)benzoic acid]: 500 to 3000 nM; `Cc1c(Sc2cccc(C(=O)O)c2F)c2ccc(Cl)c(F)c2n1CC(=O)N1CC(CN(C)C)C1` [Compound 2-71, 3-((6-Chloro-1-(2-(3-((dimethylamino)methyl)azetidin-1-yl)-2-oxoethyl)-7-fluoro-2-methyl-1H-indol-3-yl)thio)-2-fluorobenzoic acid]: not above 500 nM.
Next, `CON(C)C(=O)Cn1c(C2CC2)c(Sc2cccc(C(=O)O)c2F)c2ccc(Cl)c(F)c21` [Compound 5-7, Sodium 3-((6-chloro-2-cyclopropyl-7-fluoro-1-(2-(methoxy(methyl)amino)-2-oxoethyl)-1H-indol-3-yl)thio)-2-fluorobenzoate]: 500 to 3000 nM; `Cc1c(Sc2cccc(C(=O)O)c2)c2ccc(Cl)c(F)c2n1CC(=O)N1CCC(Cc2cnn(C)c2)C1` (centres unmarked) [Compound 1-93, 3-((6-Chloro-7-fluoro-2-methyl-1-(2-(3-((1-methyl-1H-pyrazol-4-yl)methyl)pyrrolidin-1-yl)-2-oxoethyl)-1H-indol-3-yl)thio)benzoic acid]: not above 500 nM; `Cc1c(Sc2cccc(C(=O)O)c2)c2ccc(Cl)c(F)c2n1CC(=O)N1CCCc2ccccc21` [Compound 1-36, 3-((6-Chloro-1-(2-(3,4-dihydroquinolin-1(2H)-yl)-2-oxoethyl)-7-fluoro-2-methyl-1H-indol-3-yl)thio)benzoic acid]: not above 500 nM.
Compound `Cc1c(Sc2cccc(C(=O)O)c2)c2ccc(Cl)c(F)c2n1CC(=O)N1CCC2(CC1)CC(C#N)C2` [Compound 1-19, 3-((6-Chloro-1-(2-(2-cyano-7-azaspiro[3.5]nonan-7-yl)-2-oxoethyl)-7-fluoro-2-methyl-1H-indol-3-yl)thio)benzoic acid] yielded an IC50 not above 500 nM.
`Cc1c(Sc2cccc(C(=O)O)c2)c2ccc(Cl)c(F)c2n1CC(=O)N1CCC12CCN(C)CC2` [Compound 1-87, 3-((6-Chloro-7-fluoro-2-methyl-1-(2-(7-methyl-1,7-diazaspiro[3.5]nonan-1-yl)-2-oxoethyl)-1H-indol-3-yl)thio)benzoic acid] displayed an IC50 not above 500 nM.
With `Cc1c(Sc2cccc(C(=O)O)c2)c2ccc(Cl)c(F)c2n1CC(=O)N1CC2(CCCC2)c2ccccc21` [Compound 1-39, 3-((6-Chloro-7-fluoro-2-methyl-1-(2-oxo-2-(spiro[cyclopentane-1,3′-indolin]-1′-yl)ethyl)-1H-indol-3-yl)thio)benzoic acid] the figure was not above 500 nM.
